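Test compounds were applied to cells in 96-well plates for 48 hours at 5 doses. GI50: concentration for 50% inhibition of growth. The concentration for full growth arrest is given as TGI.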
Columns and labels:
Test in all cases: inhibition of tumour cell growth, NCI panel, 48 h
[1] = system: HCT-15 colon
[2] = system: MOLT-4 leukemia
[3] = system: IGROV1 ovarian
[4] = system: HOP-62 NSCLC
[5] = system: CAKI-1 renal
[6] = system: SK-MEL-5 melanoma
[7] = system: SK-MEL-2 melanoma
[8] = system: K-562 leukemia
[9] = system: HS 578T breast
[10] = system: MDA-MB-231 breast

Compound | TGI [1] | TGI [2] | TGI [3] | TGI [4] | TGI [5] | TGI [6] | TGI [7] | TGI [8] | TGI [9] | TGI [10] | GI50 [1] | GI50 [2] | GI50 [4] | GI50 [9] | GI50 [6] | GI50 [7] | GI50 [8] | GI50 [10] | GI50 [3] | GI50 [5]
O=C(c1ccc([N+](=O)[O-])cc1[N+](=O)[O-])N(/N=C/C=C/c1ccccc1)c1nnc(-c2ccccc2)c(-c2ccccc2)n1 | > 100 µM | > 100 µM | > 100 µM | > 100 µM | 79.6 µM | > 100 µM | 97.5 µM | 57.3 µM | – | – | – | – | – | – | – | – | – | – | – | –
CCOC(=O)Cc1csc(Nc2ccccc2[N+](=O)[O-])n1 | > 100 µM | > 100 µM | > 100 µM | > 100 µM | > 100 µM | > 100 µM | > 100 µM | > 100 µM | – | – | – | – | – | – | – | – | – | – | – | –
Cc1nc2c(N)ncnc2o1 | > 100 µM | > 100 µM | > 100 µM | > 100 µM | > 100 µM | > 100 µM | > 100 µM | > 100 µM | – | – | – | – | – | – | – | – | – | – | – | –
O=c1[nH]c(=O)n(C2CC(O)C(CO)O2)cc1OS(=O)(=O)C(F)(F)F (configuration not stated) | > 100 µM | > 100 µM | > 100 µM | > 100 µM | > 100 µM | > 100 µM | > 100 µM | > 100 µM | – | – | – | – | – | – | – | – | – | – | – | –
CC1=C(C(=O)Nc2ccccc2)C(c2ccc(Cl)c(Cl)c2)C(C(=O)Nc2ccccc2)=C(C)N1 | 22.9 µM | 3.04 µM | 37.1 µM | 28.6 µM | – | 28.7 µM | – | – | – | – | – | – | – | – | – | – | – | – | – | –
CSC[C@H](NC(=O)COc1cccc2cnccc12)C(=O)NC(Cc1ccccc1)C(O)C(=O)N1CSC[C@H]1C(=O)NC(C)(C)C (some centres not stated) | > 100 µM | > 100 µM | > 100 µM | > 100 µM | – | – | > 100 µM | > 100 µM | > 100 µM | > 100 µM | – | – | – | – | – | – | – | – | – | –
COC(=O)c1c2c(c(C)[n+]([O-])c1C)C(=O)C(NCc1ccc(Br)cc1)=CC2=O | 3.91 µM | 4.74 µM | – | 7.07 µM | – | 2.11 µM | 6.12 µM | > 100 µM | 9.94 µM | 5.51 µM | 1.44 µM | 1.97 µM | 2.38 µM | 2.64 µM | 0.867 µM | 1.88 µM | 2.38 µM | 1.41 µM | – | –
O=[N+]([O-])c1cccnc1N=Nc1c(O)[nH]c2ccccc12 | 16.5 µM | > 100 µM | 53.9 µM | 60.7 µM | – | – | 53.4 µM | > 100 µM | > 100 µM | > 100 µM | – | – | – | – | – | – | – | – | – | –
Cc1cc(C)nc(NS(=O)(=O)c2ccc(Nc3c4ccccc4nc4c(C(=O)N5CCN(CCO)CC5)cccc34)cc2)n1 | > 100 µM | > 100 µM | > 100 µM | > 100 µM | > 100 µM | > 100 µM | > 100 µM | > 100 µM | – | – | – | – | – | – | – | – | – | – | – | –
CCOC(=O)C(Br)=C1OC(=O)c2ccccc2-c2ccccc21 (mixture of isomers) | 40 µM | 47.6 µM | 34.4 µM | 37.4 µM | 32.7 µM | 35.8 µM | 37.4 µM | 22.7 µM | – | – | – | – | – | – | – | – | – | – | – | –
CCOc1ccc(OCC(=O)O)c2c1CCCC2=O | > 100 µM | > 100 µM | > 100 µM | > 100 µM | – | > 100 µM | > 100 µM | – | – | – | – | – | – | – | – | – | – | – | – | –
O=C1C/C(Br)=C\c2ccccc2-c2ccccc21 | 3.36 µM | 7.81 µM | 9.02 µM | 9.67 µM | 5.86 µM | 16 µM | 12.2 µM | 9.65 µM | – | – | – | – | – | – | – | – | – | – | – | –
c1ccc2c(c1)CCc1c(-c3ccncc3)n[nH]c1-2 | 87.4 µM | 85.4 µM | 89.2 µM | > 100 µM | 73.4 µM | 32.1 µM | 38.4 µM | > 100 µM | – | – | – | – | – | – | – | – | – | – | – | –
COc1cc(C[P+](c2ccccc2)(c2ccccc2)c2ccccc2)cc(OC)c1OC | > 100 µM | – | > 100 µM | > 100 µM | > 100 µM | > 100 µM | > 100 µM | > 100 µM | – | – | – | – | – | – | – | – | – | – | – | –
CCCCCCCCCCCC[N+]12CC[N+](CCN)(CC1)CC2 | – | > 100 µM | 39.7 µM | > 100 µM | > 100 µM | > 100 µM | > 100 µM | > 100 µM | – | – | – | – | – | – | – | – | – | – | – | –
C/C(=N\NC(N)=O)c1sc(-c2nc(C)c(/C(C)=N/NC(N)=O)s2)nc1C | 46.1 µM | > 100 µM | > 100 µM | > 100 µM | > 100 µM | > 100 µM | > 100 µM | > 100 µM | – | – | – | – | – | – | – | – | – | – | – | –
CC(C)C1CN(C(=O)OCc2ccccc2)C2N1C(=O)C2(C)OCc1ccccc1 (configuration not stated) | > 100 µM | 84 µM | > 100 µM | > 100 µM | – | 29.5 µM | 73.5 µM | > 100 µM | – | – | – | – | – | – | – | – | – | – | – | –
NC(N)=Nc1nc2ccccc2o1 | > 100 µM | > 100 µM | > 100 µM | > 100 µM | > 100 µM | > 100 µM | > 100 µM | > 100 µM | – | > 100 µM | > 100 µM | > 100 µM | > 100 µM | – | > 100 µM | > 100 µM | > 100 µM | > 100 µM | > 100 µM | > 100 µM

Compound | TGI [1] | TGI [2] | TGI [3] | TGI [4] | TGI [5] | TGI [6] | TGI [7] | TGI [8] | TGI [9] | TGI [10] | GI50 [1] | GI50 [2] | GI50 [4] | GI50 [9] | GI50 [6] | GI50 [7] | GI50 [8] | GI50 [10] | GI50 [3] | GI50 [5]
C[N+](C)(C)CC(=O)N/N=C(/Cc1cc(=O)oc2cc(O)ccc12)C(=O)Nc1ccc(Cl)cc1 | – | > 100 µM | > 100 µM | > 100 µM | > 100 µM | > 100 µM | > 100 µM | > 100 µM | – | – | – | – | – | – | – | – | – | – | – | –
CN1Nc2ccccc2CC1=O | > 100 µM | – | > 100 µM | > 100 µM | > 100 µM | > 100 µM | > 100 µM | > 100 µM | – | – | – | – | – | – | – | – | – | – | – | –
COc1cc(OC)c(OC)cc1/C=N/NC(=O)N/N=C/c1cc(OC)c(OC)cc1OC | > 100 µM | > 100 µM | > 100 µM | – | – | > 100 µM | > 100 µM | > 100 µM | – | – | – | – | – | – | – | – | – | – | – | –
COCOCCC#CCO | > 100 µM | > 100 µM | > 100 µM | – | – | > 100 µM | > 100 µM | > 100 µM | – | – | – | – | – | – | – | – | – | – | – | –
CC12c3ccccc3C(OC=O)(c3ccccc31)C1(C)c3ccccc3C2(OC=O)c2ccccc21 | > 100 µM | 68.5 µM | > 100 µM | > 100 µM | > 100 µM | > 100 µM | > 100 µM | > 100 µM | – | – | – | – | – | – | – | – | – | – | – | –
CCCCCCCCc1cc2c(O)c(c1)Cc1cc(CCCCCCCC)cc(c1O)Cc1cc(CCCCCCCC)cc(c1O)Cc1cc(CCCCCCCC)cc(c1O)Cc1cc(CCCCCCCC)cc(c1O)Cc1cc(CCCCCCCC)cc(c1O)C2 | > 100 µM | > 100 µM | > 100 µM | – | > 100 µM | – | > 100 µM | > 100 µM | – | – | – | – | – | – | – | – | – | – | – | –
CNc1nc(N)nc(Nc2ccc(I)cc2)c1N=O | > 100 µM | > 100 µM | > 100 µM | > 100 µM | – | > 100 µM | > 100 µM | > 100 µM | > 100 µM | > 100 µM | – | – | – | – | – | – | – | – | – | –
O=C1c2cccc3cccc(c23)C(=O)N1CCN(CCO)CCO | 56.2 µM | 80.8 µM | > 100 µM | > 100 µM | – | 33.6 µM | 30.2 µM | 90.6 µM | – | – | – | – | – | – | – | – | – | – | – | –
O/N=C1\CCCCC1C(NO)c1ccccc1 (configuration not stated) | > 100 µM | > 100 µM | > 100 µM | > 100 µM | – | – | > 100 µM | > 100 µM | – | – | – | – | – | – | – | – | – | – | – | –
Cc1cc2c(cc1C)[n+](=O)cc(C(=O)C/C(=N/NC(=S)NN)C(=O)Nc1cccc(C(F)(F)F)c1)n2[O-] | > 100 µM | > 100 µM | > 100 µM | > 100 µM | > 100 µM | > 100 µM | > 100 µM | > 100 µM | – | – | – | – | – | – | – | – | – | – | – | –
O=S(=O)(OI(OI(OS(=O)(=O)C(F)(F)F)c1ccccc1)c1ccccc1)C(F)(F)F | > 100 µM | > 100 µM | > 100 µM | > 100 µM | > 100 µM | 85.4 µM | > 100 µM | > 100 µM | – | – | – | – | – | – | – | – | – | – | – | –
O=C1C=C(Nc2ccc(Cl)cc2C(=O)c2ccccc2)c2ccccc2C1=O | > 100 µM | > 100 µM | > 100 µM | > 100 µM | > 100 µM | > 100 µM | > 100 µM | > 100 µM | – | – | – | – | – | – | – | – | – | – | – | –
CCCCCCCC(=O)OCC1OC(n2cc(F)c(=O)[nH]c2=O)C(N)C(OC(=O)CCCCCCC)C1O (configuration not stated) | 34.2 µM | 33.6 µM | 47.7 µM | 32.5 µM | 41.5 µM | 22.3 µM | 38.5 µM | – | – | – | – | – | – | – | – | – | – | – | – | –
CC[C@@H]1NC(C(=O)OC)Cc2c1[nH]c1ccccc21 (some centres not stated) | > 100 µM | > 100 µM | > 100 µM | – | > 100 µM | > 100 µM | > 100 µM | > 100 µM | – | – | – | – | – | – | – | – | – | – | – | –
CC(=O)N/C(=C\c1ccccc1/C=C(\NC(C)=O)c1nc2cc(C)c(C)cc2[nH]1)c1nc2cc(C)c(C)cc2[nH]1 | – | 97.4 µM | 66.3 µM | 68.6 µM | 78.1 µM | 43 µM | 53.9 µM | 95.5 µM | – | – | – | – | – | – | – | – | – | – | – | –
O=Cc1cc2c(cc1-c1cc3c(cc1C=O)OCO3)OCO2 | > 100 µM | > 100 µM | > 100 µM | > 100 µM | > 100 µM | > 100 µM | > 100 µM | > 100 µM | – | – | – | – | – | – | – | – | – | – | – | –
O=C1C=C(c2c(O)ccc3ccccc23)c2cc(O)ccc2C1=O | 33 µM | 8.67 µM | 30.3 µM | 35.4 µM | 40.1 µM | 28.6 µM | 36.8 µM | > 100 µM | – | – | – | – | – | – | – | – | – | – | – | –

From PubChem BioAssay (NCI)
